For experiment [1], the target named is T1, PxTAR1 (Plutella xylostella, UniProt A0A4D6I7S9).
T1 construct: gene tar1; full-length ORF, 467 residues, 52266 Da; lentiviral vector pEB-TAR1-3flag-copGFP(T2A)PURO (3flag tag, GFP co-expressed via T2A)
T1 sequence (A0A4D6I7S9 1-467): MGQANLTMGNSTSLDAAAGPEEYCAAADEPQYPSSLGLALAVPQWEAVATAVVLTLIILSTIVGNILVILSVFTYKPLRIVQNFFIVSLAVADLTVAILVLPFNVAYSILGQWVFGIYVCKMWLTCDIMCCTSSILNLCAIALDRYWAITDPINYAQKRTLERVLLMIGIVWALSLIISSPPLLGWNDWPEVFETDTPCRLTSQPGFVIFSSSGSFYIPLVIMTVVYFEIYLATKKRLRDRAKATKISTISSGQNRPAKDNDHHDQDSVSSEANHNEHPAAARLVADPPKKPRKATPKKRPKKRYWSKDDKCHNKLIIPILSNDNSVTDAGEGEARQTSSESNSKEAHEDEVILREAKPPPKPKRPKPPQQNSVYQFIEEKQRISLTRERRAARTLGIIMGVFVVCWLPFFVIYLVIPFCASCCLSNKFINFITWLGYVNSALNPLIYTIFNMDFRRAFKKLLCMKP
As to the kind of experiment: intracellular Ca2+ assay, Cal-590 AM, confocal imaging, stable HEK-293 line. Format: cell-based.

The target of experiment [2] is T1, PxTAR1. Put plainly: cAMP ELISA (Parameter Assay Kit), TAR1/[…] cells. Format: cell-based. On the technique in general: ELISA stands for enzyme-linked immunosorbent assay.

On to `CNC=Nc1ccc(C)cc1C` [DPMF, N2-(2,4-Dimethylphenyl)-N1-methyformamidine], for which, at PxTAR1 [1], the EC50 (usually the concentration giving half of the maximal effect) worked out at 84.5 nM.
As to `C=C(C)[C@@H]1CC=C(C)C(=O)C1` [L(-)-carvone], the EC50 on PxTAR1 [1] is 1.15 nM.
As to `NC[C@H](O)c1ccc(O)cc1` [octopamine], the IC50 (in general, the concentration that inhibits the measured activity by half) at PxTAR1 [2] was 13700 nM.
For the compound `NCCc1ccc(O)cc1` [tyramine], the midpoint of the response at PxTAR1 [1], the EC50, lay at 13.1 nM. Moreover, half-maximal inhibition at PxTAR1 [2] (IC50) was put at 446 nM.

Values taken from PMC6627746, “Pharmacological Properties of the Type 1 Tyramine Receptor in the Diamondback Moth, Plutella xylostella” (International Journal of Molecular Sciences, 2019).
